According to PubChem BioAssay (NCI):
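Following 48 hours of exposure in 96-well plates, responses at five concentrations were used to interpolate endpoints linearly. GI50 is the concentration that inhibits growth by half. Definition used: TGI = concentration required for complete inhibition of growth.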

Tests used:
Assay in all cases: DTP human tumour cell line panel, 48 h
HCC-2998 colon = system: HCC-2998 colon
HS 578T breast = system: HS 578T breast
HL-60(TB) leukemia = system: HL-60(TB) leukemia
CCRF-CEM leukemia = system: CCRF-CEM leukemia
UACC-62 melanoma = system: UACC-62 melanoma
SK-MEL-5 melanoma = system: SK-MEL-5 melanoma
MDA-MB-435 = system: MDA-MB-435
SK-OV-3 ovarian = system: SK-OV-3 ovarian

Row | SMILES | GI50 (HCC-2998 colon) [µM] | TGI (HCC-2998 colon) [µM] | GI50 (HS 578T breast) [µM] | TGI (HS 578T breast) [µM] | GI50 (HL-60(TB) leukemia) [µM] | TGI (HL-60(TB) leukemia) [µM] | GI50 (CCRF-CEM leukemia) [µM] | TGI (CCRF-CEM leukemia) [µM] | GI50 (UACC-62 melanoma) [µM] | TGI (UACC-62 melanoma) [µM] | GI50 (SK-MEL-5 melanoma) [µM] | TGI (SK-MEL-5 melanoma) [µM] | GI50 (MDA-MB-435) [µM] | TGI (MDA-MB-435) [µM] | GI50 (SK-OV-3 ovarian) [µM] | TGI (SK-OV-3 ovarian) [µM]
1 | Cn1cc(-c2csc(-c3ccc(Cl)cc3)n2)c2cccnc21 | 14.6 | 28.8 | 12 | 34.4 | 10.4 | 47.5 | 18.4 | 51.9 | 10.5 | 29.8 | 13.9 | 27.6 | 12.8 | 33.6 | 15.9 | 39.2
2 | COc1ccc2c(CN3CCCC[C@H]3O)cc3cc4c(cc3c2c1)OCO4 | 0.337 | 1.48 | 0.663 | 2.94 | 0.351 | 1.35 | 0.528 | 4.07 | 0.247 | 0.712 | 0.345 | 1.39 | 0.422 | 1.62 | 0.275 | 0.961
3 | COc1cc(C2CC(c3ccc(Cl)cc3)=NN2C(C)=O)ccc1Oc1ccnc2cc(Cl)ccc12 (configuration not stated) | > 100 | > 100 | 2.94 | > 100 | > 100 | > 100 | > 100 | > 100 | > 100 | > 100 | > 100 | > 100 | > 100 | > 100 | – | –
4 | CCCCS(=O)(=O)c1cc(Nc2ccc(O)c3c2C(=O)c2ccccc2C3=O)ccc1C | > 100 | > 100 | 75.5 | > 100 | > 100 | > 100 | > 100 | > 100 | 2.77 | > 100 | – | – | – | – | > 100 | > 100
5 | COc1ccc(C(=O)Cn2c(C(=O)c3ccc(Cl)cc3)nc(-c3ccccc3)c2-c2ccccc2)cc1 | > 100 | > 100 | 44.1 | > 100 | > 100 | > 100 | – | – | > 100 | > 100 | > 100 | > 100 | > 100 | > 100 | 60.1 | > 100
6 | CC(C)(O)c1cc(Nc2cc(Oc3cn(C4CC4)nc3C3CCOCC3)ccn2)ccn1 | > 100 | > 100 | 73.8 | > 100 | 27.6 | > 100 | > 100 | > 100 | – | – | 38.7 | > 100 | > 100 | > 100 | > 100 | > 100
7 | CN(Cc1cnc2nc(N)nc(N)c2n1)c1c(Cl)cc(C(=O)NC(CCC(=O)O)C(=O)O)cc1Cl (configuration not stated) | < 0.0148 | > 100 | 8.12 | > 100 | < 0.01 | > 100 | < 0.01 | > 100 | < 0.0106 | > 100 | 0.0483 | > 100 | < 0.01 | > 100 | 0.807 | > 100
8 | O=C(O)C(Cc1ccccc1)N1C(=O)/C(=C/C(Cl)=C/c2ccc([N+](=O)[O-])cc2)SC1=S (configuration not stated) | 1.96 | 3.5 | 4.37 | > 100 | – | – | 2.92 | > 100 | 2 | 4.85 | 1.68 | 3.06 | 2.27 | 6 | 4.13 | > 100
9 | COc1cc(N)c(Cl)cc1C(=O)N[C@@H]1CCN(CCCOc2ccc(F)cc2)C[C@@H]1OC | 35.2 | > 100 | > 100 | > 100 | 82.4 | > 100 | – | – | 67.6 | > 100 | 17.8 | > 100 | > 100 | > 100 | > 100 | > 100
10 | O=C(O)CCN1C(=S)CSC1=S | – | – | – | > 100 | – | – | – | > 100 | – | > 100 | – | > 100 | – | > 100 | – | > 100
11 | COC(=O)c1c(C(=O)O)c(-c2ccccc2)c(-c2ccccc2)c(-c2ccccc2)c1-c1ccccc1 | – | – | > 100 | > 100 | > 100 | > 100 | > 100 | > 100 | > 100 | > 100 | > 100 | > 100 | > 100 | > 100 | > 100 | > 100
12 | COC(=O)N[C@@H](C)CNc1nccc(-c2cn(C(C)C)nc2-c2cc(Cl)cc(NS(C)(=O)=O)c2F)n1 | 30.9 | > 100 | 0.599 | > 100 | 0.741 | > 57.9 | 38.2 | > 100 | – | – | > 100 | > 100 | < 0.01 | > 100 | 0.363 | > 100
13 | CCOC(=O)c1sc(NC(=O)COc2ccc(/C=C3\CCc4cc(OC)ccc4C3=O)cc2)nc1C | 1.47 | 4.38 | 13.4 | 42.4 | 0.294 | 0.949 | – | – | 11.3 | 23.4 | 12.4 | 24.8 | 4.05 | 18.3 | 18.7 | 45.3
14 | CC(=O)/C(=N\N=C(N)N)c1ccccc1 | – | > 100 | – | > 100 | – | – | – | – | – | > 100 | – | > 100 | – | > 100 | – | > 100
15 | Fc1ccc(-c2ncn(C3CCNCC3)c2-c2ccnc(Oc3ccc(Cl)cc3)n2)cc1 | 4.12 | 7.93 | 2.58 | > 11.3 | 4.96 | 11.6 | – | – | 4.18 | 8.04 | 3.22 | 6.41 | 4.04 | 8.21 | 3.88 | 8.12
16 | O=C(CC1(O)CCCCC1)OC1CCCC1 | – | – | – | > 100 | – | – | – | – | – | > 100 | – | > 100 | – | > 100 | – | > 100
17 | COc1ccc(CN2c3ccccc3Sc3ccccc32)cc1O | 0.422 | 10.7 | 0.933 | 46 | 0.257 | 0.661 | 0.411 | 22.4 | 0.682 | 19.4 | 0.438 | 11.3 | – | – | 0.521 | 16.4
